Measurements taken from US20260184691A1, “INHIBITORS AND DEGRADERS OF PIP4K PROTEIN” (Larkspur Biosciences, Inc., priority 2022, published 2026).

The compounds below were run against T1, Human PIP4K2C (Homo sapiens, UniProt Q8TBX8) (assay: Enzyme binding assay (KINOMEscan), active site-directed competition binding). Settings: 11-point dose response, duplicate, top concentration 5 micromolar; read-out: Pip4k2c Kd: IC50.
T1 construct: purchased Eurofins DiscoverX 87-0007-1094
T1 sequence (Q8TBX8 1-421): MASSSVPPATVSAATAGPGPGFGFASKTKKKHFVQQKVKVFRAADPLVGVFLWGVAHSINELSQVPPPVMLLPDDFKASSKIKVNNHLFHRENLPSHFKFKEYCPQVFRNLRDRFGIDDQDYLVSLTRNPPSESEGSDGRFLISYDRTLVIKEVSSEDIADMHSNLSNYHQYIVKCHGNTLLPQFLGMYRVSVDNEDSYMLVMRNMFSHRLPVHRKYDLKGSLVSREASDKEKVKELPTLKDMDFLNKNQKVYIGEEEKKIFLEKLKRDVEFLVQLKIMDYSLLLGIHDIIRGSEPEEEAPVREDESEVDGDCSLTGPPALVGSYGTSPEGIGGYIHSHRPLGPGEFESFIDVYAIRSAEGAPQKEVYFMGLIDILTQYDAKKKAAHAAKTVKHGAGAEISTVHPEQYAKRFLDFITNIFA
Description: PIP4K2C binding constants disclosed herein were determined using the proprietary Human PIP4K2C binding assay (Catalog number 87-0007-1094, Eurofins DiscoverX, San Diego, CA). This assay measures active site-directed competition binding to an immobilized ligand (see https://doi.org/10.1038/nbt1068, herein incorporated by reference in its entirety). Experiments were conducted using an 11-point dose response curve, in duplicate, with a top starting concentration of 5 micromolar; the Levenberg-Marquardt algorithm was used to fit a Hill equation to dose-response data to calculate IC50 values (see Table 5).

Compound	IC50
O=C1CCCN1c1cncc(Nc2ncc(Cl)c(-c3ccc(F)cc3)n2)c1 [Compound 118, 1-(5-((5-chloro-4-(4-fluorophenyl)pyrimidin-2-yl)amino)pyridin-3-yl)pyrrolidin-2-one]	< 0.5 µM
O=C1N(c2cncc(Nc3ncc(Cl)c(-c4cccc(-c5ccccc5)c4)n3)c2)CCC12CCNCC2 [Compound 1, 2-(5-((4-([1,1′-biphenyl]-3-yl)-5-chloropyrimidin-2-yl)amino)pyridin-3-yl)-2,8-diazaspiro[4.5]decan-1-one]	< 0.5 µM
COc1cc(-c2ccccc2)cc(-c2nc(Nc3cncc(N4CCCC4=O)c3)ncc2Cl)c1 [Compound 18, 1-(5-((5-chloro-4-(5-methoxy-[1,1′-biphenyl]-3-yl)pyrimidin-2-yl)amino)pyridin-3-yl)pyrrolidin-2-one]	< 0.5 µM
CCCCC(=O)NC1CCCN(c2nc(Nc3cncc(N4CCCC4=O)c3)ncc2Cl)C1 (stereo not shown) [Compound 110, N-(1-(5-chloro-2-((5-(2-oxopyrrolidin-1-yl)pyridin-3-yl)amino)pyrimidin-4-yl)piperidin-3-yl)pentanamide]	< 0.5 µM
O=C1CCCN1c1cncc(Nc2ncc(Cl)c(N3CCCCC3C(F)(F)F)n2)c1 (stereo not shown) [Compound 119, 1-(5-((5-chloro-4-(2-(trifluoromethyl)piperidin-1-yl)pyrimidin-2-yl)amino)pyridin-3-yl)pyrrolidin-2-one]	< 0.5 µM
CN1CCC2(CC1)CCN(c1cncc(Nc3ncc(Cl)c(-c4cccc(-c5ccccc5)c4)n3)c1)C2=O [Compound 132, 2-[5-[[5-chloro-4-(3-phenylphenyl)pyrimidin-2-yl]amino]-3-pyridyl]-8-methyl-2,8-diazaspiro[4.5]decan-1-one]	< 0.5 µM
O=C1CCCN1c1cncc(Nc2ncc(Cl)c(-c3cc(Cl)cc(-c4ccccc4)c3)n2)c1 [Compound 22, 1-(5-((5-chloro-4-(5-chloro-[1,1′-biphenyl]-3-yl)pyrimidin-2-yl)amino)pyridin-3-yl)pyrrolidin-2-one]	< 0.5 µM
O=C1CCCN1c1cncc(Nc2ncc(F)c(C3CCCN(C4CC4)C3)n2)c1 (stereo not shown) [Compound 154, 1-(5-((4-(1-cyclopropylpiperidin-3-yl)-5-fluoropyrimidin-2-yl)amino)pyridin-3-yl)pyrrolidine-2-one]	< 0.5 µM
CC(C)c1cccc(-c2nc(Nc3cncc(N4CCCC4=O)c3)ncc2Cl)c1 [Compound 98, 1-(5-((5-chloro-4-(3-isopropylphenyl)pyrimidin-2-yl)amino)pyridin-3-yl)pyrrolidin-2-one]	< 0.5 µM
O=C1CCCN1c1cncc(Nc2ncc(Cl)c(C3CCCN(C4CCCC4)C3)n2)c1 (stereo not shown) [Compound 135, 1-(5-((5-chloro-4-(1-cyclopentylpiperidin-3-yl)pyrimidin-2-yl)amino)pyridin-3-yl)pyrrolidin-2-one]	< 0.5 µM
CN1CCC(n2cc(-c3nc(Nc4cncc(N5CCCC5=O)c4)ncc3Cl)cn2)CC1 [Compound 47, 1-(5-((5-chloro-4-(1-(1-methylpiperidin-4-yl)-1H-pyrazol-4-yl)pyrimidin-2-yl)amino)pyridin-3-yl)pyrrolidin-2-one]	< 0.5 µM
O=C1CCCN1c1cncc(Nc2ncc(Cl)c(N3CCCC(C4CC4)C3)n2)c1 (stereo not shown) [Compound 126, 1-(5-((5-chloro-4-(3-cyclopropylpiperidin-1-yl)pyrimidin-2-yl)amino)pyridin-3-yl)pyrrolidin-2-one]	< 0.5 µM
CC1CCCCN1c1nc(Nc2cncc(N3CCCC3=O)c2)ncc1Cl (stereo not shown) [Compound 106, 1-(5-((5-chloro-4-(2-methylpiperidin-1-yl)pyrimidin-2-yl)amino)pyridin-3-yl)pyrrolidin-2-one]	< 0.5 µM
O=C(C1CCCC1)N1CCC(c2nc(Nc3cncc(N4CCCC4=O)c3)ncc2Cl)CC1 [Compound 153, 1-(5-((5-chloro-4-(1-(cyclopentanecarbonyl)piperidin-4-yl)pyrimidin-2-yl)amino)pyridin-3-yl)pyrrolidin-2-one]	< 0.5 µM
O=C1CCCN1c1cncc(Nc2ncc(Cl)c(N3CCc4ccccc43)n2)c1 [Compound 129, 1-(5-((5-chloro-4-(indolin-1-yl)pyrimidin-2-yl)amino)pyridin-3-yl)pyrrolidin-2-one]	< 0.5 µM
CC1CC(C)CN(c2nc(Nc3cncc(N4CCCC4=O)c3)ncc2Cl)C1 (stereo not shown) [Compound 115, 1-(5-((5-chloro-4-(3,5-dimethylpiperidin-1-yl)pyrimidin-2-yl)amino)pyridin-3-yl)pyrrolidin-2-one]	< 0.5 µM
O=C1CCCN1c1cncc(Nc2ncc(Cl)c(-c3ccc(Cl)cc3)n2)c1 [Compound 93, 1-(5-((5-chloro-4-(4-chlorophenyl)pyrimidin-2-yl)amino)pyridin-3-yl)pyrrolidin-2-one]	< 0.5 µM

Results, then the compound that gave them:

IC50	Compound
< 0.5 µM	O=C1CCCN1c1cncc(Nc2ncc(Cl)c(-c3cc(C4CC4)[nH]n3)n2)c1 [Compound 50, 1-(5-((5-chloro-4-(5-cyclopropyl-1H-pyrazol-3-yl)pyrimidin-2-yl)amino)pyridin-3-yl)pyrrolidin-2-one]
< 0.5 µM	O=C1CCCN1c1cncc(Nc2ncc(Cl)c(N3CCC[C@@H](c4ccccn4)C3)n2)c1 (single isomer, unassigned) [Compound 124]
< 0.5 µM	O=C1CCCN1c1cncc(Nc2ncc(Cl)c(-c3ccn(-c4ccccc4)n3)n2)c1 [Compound 143, 1-(5-((5-chloro-4-(1-phenyl-1H-pyrazol-3-yl)pyrimidin-2-yl)amino)pyridin-3-yl)pyrrolidine-2-one]
< 0.5 µM	Cc1ccccc1-c1cccc(-c2nc(Nc3cncc(N4CCCC4=O)c3)ncc2Cl)c1 [Compound 15, 1-(5-((5-chloro-4-(2′-methyl-[1,1′-biphenyl]-3-yl)pyrimidin-2-yl)amino)pyridin-3-yl)pyrrolidin-2-one]
< 0.5 µM	O=C1CCCN1c1ccc(Nc2ncc(F)c(-c3cccc(C4CC4)c3)n2)cn1 [Compound 147, 1-(5-((4-(3-cyclopropylphenyl)-5-fluoropyrimidin-2-yl)amino)pyridin-2-yl)pyrrolidin-2-one]
< 0.5 µM	O=C1CCCN1c1cncc(Nc2cc(-c3ccccc3)c(Cl)cn2)c1 [Compound 117, 1-(5-((5-chloro-4-phenylpyridin-2-yl)amino)pyridin-3-yl)pyrrolidin-2-one]
< 0.5 µM	O=C1CCCN1c1cncc(Nc2ncc(Cl)c(-c3cc(-c4ccccc4)ccc3Cl)n2)c1 [Compound 20, 1-(5-((5-chloro-4-(4-chloro-[1,1′-biphenyl]-3-yl)pyrimidin-2-yl)amino)pyridin-3-yl)pyrrolidin-2-one]
< 0.5 µM	O=C1CCCN1c1cncc(Nc2ncc(Cl)c(N3CCCC(c4ccccc4)C3)n2)c1 (stereo not shown) [Compound 24, 1-(5-((5-chloro-4-(3-phenylpiperidin-1-yl)pyrimidin-2-yl)amino)pyridin-3-yl)pyrrolidin-2-one]
< 0.5 µM	O=C1CCCN1c1cncc(Nc2ncc(Cl)c(N3CCOC(c4ccccn4)C3)n2)c1 (stereo not shown) [Compound 134, 1-[5-[[5-chloro-4-[2-(2-pyridyl)morpholin-4-yl]pyrimidin-2-yl]amino]-3-pyridyl]pyrrolidin-2-one]
< 0.5 µM	O=C1CCCN1c1cncc(Nc2ncc(Cl)c(N3CCCCC3)n2)c1 [Compound 96, 1-(5-((5-chloro-4-(piperidin-1-yl)pyrimidin-2-yl)amino)pyridin-3-yl)pyrrolidin-2-one]
< 0.5 µM	Cc1ccc(-c2nc(Nc3cncc(N4CCCC4=O)c3)ncc2Cl)cc1 [Compound 94, 1-(5-((5-chloro-4-(p-tolyl)pyrimidin-2-yl)amino)pyridin-3-yl)pyrrolidin-2-one]
< 0.5 µM	O=C1CCCN1c1cncc(Nc2ncc(Cl)c(-c3cccc(C4CCNCC4)c3)n2)c1 [Compound 26, 1-(5-((5-chloro-4-(3-(piperidin-4-yl)phenyl)pyrimidin-2-yl)amino)pyridin-3-yl)pyrrolidin-2-one]
< 0.5 µM	O=C1CCCN1c1cncc(Nc2ncc(Cl)c(C3CCCCC3)n2)c1 [Compound 97, 1-(5-((5-chloro-4-cyclohexylpyrimidin-2-yl)amino)pyridin-3-yl)pyrrolidin-2-one]
< 0.5 µM	O=C(C1COC1)N1CCCC(c2nc(Nc3cncc(N4CCCC4=O)c3)ncc2Cl)C1 (stereo not shown) [Compound 160, 1-(5-((5-chloro-4-(1-(oxetane-3-carbonyl)piperidin-3-yl)pyrimidin-2-yl)amino)pyridin-3-yl)pyrrolidin-2-one]
< 0.5 µM	CC(C)c1cc(-c2nc(Nc3cncc(N4CCCC4=O)c3)ncc2Cl)ccn1 [Compound 111, 1-(5-((5-chloro-4-(2-isopropylpyridin-4-yl)pyrimidin-2-yl)amino)pyridin-3-yl)pyrrolidin-2-one]
< 0.5 µM	CC(=O)N1CCCC(c2nc(Nc3cncc(N4CCCC4=O)c3)ncc2Cl)C1 (stereo not shown) [Compound 151, 1-(5-((4-(1-acetylpiperidin-3-yl)-5-chloropyrimidin-2-yl)amino)pyridin-3-yl)pyrrolidine-2-one]
< 0.5 µM	O=C1CCCN1c1cncc(Nc2ncc(Cl)c(N3CCCC(C4CCC4)C3)n2)c1 (stereo not shown) [Compound 123, 1-(5-((5-chloro-4-(3-cyclobutylpiperidin-1-yl)pyrimidin-2-yl)amino)pyridin-3-yl)pyrrolidin-2-one]
